# From US10765716B2, “Obesity treatment” (priority 2017, dated 2020)
# Tests used:
# Type in all cases: in vivo, male Wistar rats
# [1] = system: high-fat diet induced obese rats; assay: Renal and liver toxicity assessment after 12 weeks of treatment period
# Experimental: Whereas for therapeutic studies the animal groups were as follow: Group 1 (TA), Control; animals in this group received LFD, and distilled water Group 2 (TC), Pathological control; animals in this group received HFD, and distilled water. Groups 3 (TO), High fat diet induced obese animals in this group received standard drug Orlistat (100 mg/kg/day). Group 4 (TS): High fat diet induced obese animals in this group received standard drug Sibutramine (5 mg/kg/day), Group 5 (TC1): High fat diet induced obese animals in this group received C. latifolia extract (150 mg/kg/day). Group 6 (FC2) High fat diet induced obese animals in this group received C. latifolia extract (300 mg/kg/day). […]
# Blood glucose, serum insulin, total cholesterol, triglycerides, HDL, LDL, very low density lipoproteins […], urea, creatinine, aspartate aminotransferase […], alkaline phosphatase (ALP), serum glutamic pyruvic transaminase (SGPT), and direct and total bilirubin were estimated. Fasting blood glucose levels were measured using glucometer (AccuChek Performa, Australia). Fasting insulin levels were quantified using ultra sensitive rat insulin ELISA kit (Crystal Chem. Downers Grove, USA). Insulin sensitivity was evaluated using Homeostatic Model Assessment (HOMA). […]
# high fat diet rats = assay: Preventive study: high fat diet rats given extract or standard drugs for 8 weeks (food intake, body weight, lipid profile, fasting blood glucose, liver histology); conditions: preventive study 8 weeks
# Experimental: (§1) The crude extracts of C. latifolia were suspended in distilled water before its administration to the rat models. Orlistat and Sibutramine were used as standard drugs at doses of 100 mg/kg, and 5 mg/kg, respectively (dissolved in distilled water).
# (§2) Thirty male Wistar rats (210-220 g) were obtained from the animal house facility of Dr. Panjwani Center for Molecular Medicine and Drug Research (ICCBS). All animals were kept under standard conditions of temperature and humidity with a 12 h light/dark cycle, approved by the Ethical Committee of International Center for Chemical and Biological Sciences (Protocol number: 2013-0001). After one week of acclimation period, rats were randomly divided into […]. The control group was fed with normal diet (D12450B, Research Diets, USA), whereas the other groups were fed high-fat diet (D12451, Research Diets, USA) for a period of 16-week. After 10 weeks, biochemical parameters were evaluated regularly to establish whether the model has developed the symptoms of metabolic syndrome. […]
# (§3) Body weights were recorded weekly throughout the experiment. The food intake was calculated by using following formula, as described by Ghezzi et al, 2012: […]
# (§4) Blood glucose, serum insulin, total cholesterol, triglycerides, HDL, LDL, very low density lipoproteins […], urea, creatinine, aspartate aminotransferase […], alkaline phosphatase (ALP), serum glutamic pyruvic transaminase (SGPT), and direct and total bilirubin were estimated. Fasting blood glucose levels were measured using glucometer (AccuChek Performa, Australia). Fasting insulin levels were quantified using ultra sensitive rat insulin ELISA kit (Crystal Chem. Downers Grove, USA). Insulin sensitivity was evaluated using Homeostatic Model Assessment (HOMA). Serum total cholesterol, triglycerides, HDL, LDL, VLDL, urea, creatinine, AST, ALP, SGPT, and direct and total bilirubin were analyzed using automatic analyzer (Hitachi, Roche Diagnostics 902, Tokyo, Japan).
# [2] = system: high-fat diet induced obese rats; assay: Therapeutic study: high-fat diet induced obese rats treated for 12 weeks (food intake, body weight, lipid profile, fasting blood glucose, leptin, insulin, histology); conditions: for average food intake (in words): therapeutic study 12 weeks, Orlistat (TO), Sibutramine (TS), extract (TC1 and TC2)
# Experimental: as §1, §2, §3, §4
SMILES,"Direct bilirubin ([1]; rat, in vivo, 100 mg/kg) [mg/dL]",FBG (fasting blood glucose) (high fat diet rats; 100 mg/kg (PO)) [mg/dL],average food intake (in words) [2],"Direct bilirubin ([1]; liver toxicity, after 12 weeks of treatment, 5 mg/kg (TS)) [mg/dL]",FBG (fasting blood glucose) (high fat diet rats; 5 mg/kg (PS)) [mg/dL],"Triglyceride (high fat diet rats; serum, 5 mg/kg (PS)) [mg/dL]","FBG (fasting blood glucose) ([2]; after 12 weeks of treatment, 5 mg/kg (TS)) [mg/dL]"
CCCCCCCCCCC[C@@H](C[C@@H]1OC(=O)[C@H]1CCCCCC)OC(=O)[C@H](CC(C)C)NC=O [Orlistat],0.06 ± 0.008,79 ± 1.04,decrease,,,,
CC(C)CC(N(C)C)C1(c2ccc(Cl)cc2)CCC1 (centres unmarked) [Sibutramine],,,decrease,0.03 ± 0.004,76 ± 2.12,51 ± 0.19,80 ± 0.12
